What was measured:
Format in all cases: in vivo
[1] = system: Plutella xylostella; test: Pesticidal test against Plutella xylostella (cabbage leaf dip); settings: foliar, 144 h, concentration 1 ppm, 2-stage larvae, examined after 6 days, 25° C., read-out: pesticidal rate
In short: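 Second-stage larvae (5 per group, two replicates) were released onto air-dried cabbage leaf discs that had been immersed for 30 seconds in compound solution at a set concentration. Mortality was scored after 6 days at 25° C.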

[2] = system: Choristoneura magnanima; test: Pesticidal test against Choristoneura magnanima (artificial feed dip); settings: 144 h, concentration 1 ppm, 2-stage larvae, examined after 6 days, 25° C., read-out: pesticidal rate
In short: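 Second-stage larvae, five per group in duplicate, fed artificial diet that had been immersed 30 s in test solution at a predetermined concentration and air-dried. Mortality scored at day 6, 25° C.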

[3] = system: Ctenocephalides Felis; test: Insecticidal test for Ctenocephalides felis, Test Example 1 (dry film in glass tube, 0.5 ml, Table A4); settings: adults; for pest or weed control at 0.1 µg/mL: Ctenocephalides felis, concentration 0.1 μg/ml, after 24 hours of the exposure, in triplicate, read-out: death rate
Experimental: Insecticidal Test for Ctenocephalides Felis
0.5 ml of a solution of acetone, the active ingredient, prepared to the prescribed concentration was added dropwise to a glass tube with a flat bottom (internal diameter: 2.6 cm, bottom area: 5.3 cm^2, height: 12 cm), and the solvent was evaporated at room temperature to form a dry film of the agent on the bottom surface. About 10 adults of Ctenocephalides Felis per glass tube were added, and the adults were contact-exposed to the test compound. After 24 hours of the exposure, the conditions of the adults were examined and classified into “alive” and “dead (including a moribund condition)” to determine the death rate (in triplicate).
As the comparative compounds, the following Compounds (A), (B), and (C) disclosed in WO2009/080203, and fipronil were used.

[4] = system: Ctenocephalides Felis; test: as above; settings: adults

Structure (SMILES) | pest or weed control at 1 ppm [1] | pest or weed control at 1 ppm [2] | pest or weed control at 0.1 µg/mL [3] | speed of effect as compared with the fipronil ([3]; compared with fipronil) | effect in the examination after 12 hours of the exposure [4]
CN(C(=O)c1ccccc1)c1cccc(C(=O)Nc2c(Br)cc(C(F)(C(F)(F)F)C(F)(F)F)cc2C(F)(F)F)c1F [7-1574, N-(2-bromo-4-(perfluoropropan-2-yl)-6-(trifluoromethyl)phenyl)-2-fluoro-3-(N-methylbenzamide)benzamide] | ≥ 70% | ≥ 70% | 100% | immediate effect | effective
CN(C(=O)c1ccc(F)cc1)c1cccc(C(=O)Nc2c(I)cc(C(F)(C(F)(F)F)C(F)(F)F)cc2C(F)(F)F)c1F [7-1733, 2-fluoro-3-(4-fluoro-N-methylbenzamide)-N-(2-iodo-4-(perfluoropropan-2-yl)-6-(trifluoromethyl)phenyl)benzamide] | ≥ 70% | ≥ 70% | 100% |  | 

Source: patent US8686044B2, “Amide derivative, pest control agent containing the amide derivative, and use of the amide derivative” (Mitsui Chemicals Agro, Inc., priority 2008, dated 2014)
